Laboratory results from patent US4156777A, “Process for producing glucopyranose-nitrosourea compounds and novel compounds included therein” (Tokyo Tanabe Company, Limited, priority 1977, dated 1979).
Converted amounts (≈) assume the structure as drawn.

Legend:
leukemia L-1210 = assay: Antitumor activity against leukemia L-1210 implanted in BDF1 mice (ILS, 60 days survivors); assay type: in vivo
From the text: Test compounds were given to BDF1 mice 24 hrs after implantation of 10^6 cells of leukemia L-1210 in each animal, through single intraperitoneal administration, intraperitoneal administration for 5 successive days, single oral administration or oral administration for 5 successive days, whereupon the increase in life span (referred to as "ILS") and number of 60 days survivors of test animals were estimated, said test of antitumor activity being that according to the method of the National Cancer Center, Tokyo [A. Hoshi et al: Farmashia, 9 (1973), 464]. In the tests, the compounds were dissolved in physiological saline solution just before administration.
^a i.p.: intraperitoneal administration p.o: oral administration
D1 : single administration D1~5 : administration for 5
^b percentage calculated from mean survival time over control
^c survivors/six animals

[1] = Effect on respiration, blood pressure, heart rate and electrocardiogram; assay type: in vivo, Beagle dogs; settings: dog, in vivo, iv; injected into brachial veins, anesthetized Beagle dogs; read-out: maximum dosage not effected on respiration, blood pressure, heart rate and electrocardiogram
Description: Beagle dogs of both sexes weighing about 10 kg were anesthetized with pentobarbital sodium (30 mg/kg, i.v.), and immobilized in the supine position. Test compounds dissolved in physiological saline solution were injected into the brachial veins of the animals and the arteries at cannulated positions were treated with heparin sodium as anticoagulant.
The respiration rate of each animal was estimated with a respirometer (Nihonkohden, RP-3) through a tracheal cannula, the blood pressure with an electro-haemodynamometer (Nihonkohden, MP-4T) attached surgically to the femoral artery, and the heart rate with a pulse-rate tachometer (Nihonkohden, RT-2) through the trigger pulse of the blood pressure.

[2] = Absorption and excretion of 14C-labelled compounds; assay type: in vivo, rats; settings: rats, 14C-labelled
Description: The carbon atom at the 2-position of the chloroethyl group (i.e. ClCH2 CH2 -) of 6DCNU and 6MCαG was labelled with radioactive ^14 C, and the absorption and excretion of these compounds were tested using rats.

[3] = Solubility in water at 25° C.; assay type: physicochemical; settings: amount soluble in 1 ml water at 25° C.
Acute toxicity (LD50) = assay type: in vivo, male Wister rats; settings: rat, in vivo, after 1 week
Description: Test compounds were dissolved in physiological saline solution just before their dosage and administered to male Wister rats, intraperitoneally, intravenously and orally. After 1 week, the LD50 of each compound was calculated from the mortality of the test animals by the Lichfield-Wilcoxon Method.
i.v.: intravenous administration

[4] = system: Escherichia coli NIHJ JC-2; assay: Antibacterial activity, broth-dilution method; assay type: cell-based; settings: NIHJJC2
From the text: (§1) Using 6DCNU and 6MCαG, minimum inhibiting concentrations (referred to as "MIC") for various kinds of bacteria were estimated by means of the broth-dilution method.

[5] = system: Mycobacterium smegmatis ATCC 607; assay: Antibacterial activity, broth-dilution method; assay type: cell-based; settings: Mycolicibacterium smegmatis, ATCC607
From the text: as §1

[6] = system: Pseudomonas aeruginosa IFO 3080; assay: Antibacterial activity, broth-dilution method; assay type: cell-based; settings: IFO3080
From the text: as §1

Shigella sonnei = assay: Antibacterial activity, broth-dilution method; assay type: cell-based
From the text: as §1

[7] = system: Staphylococcus aureus FDA 209P JC-1; assay: Antibacterial activity, broth-dilution method; assay type: cell-based; settings: FDA209P
From the text: as §1

Sarcina lutea ATCC 9341 = assay: Antibacterial activity, broth-dilution method; assay type: cell-based; settings: Micrococcus luteus, ATCC9341
From the text: as §1

[8] = system: Klebsiella pneumoniae IFM 3008; assay: Antibacterial activity, broth-dilution method; assay type: cell-based; settings: IFM3008
From the text: as §1

[9] = system: Bacillus subtilis ATCC 6633; assay: Antibacterial activity, broth-dilution method; assay type: cell-based; settings: ATCC6633
From the text: as §1

[10] = system: Streptococcus faecalis AHU 1085; assay: Antibacterial activity, broth-dilution method; assay type: cell-based; settings: Enterococcus faecalis, AHU1085
From the text: as §1

[11] = Diabetogenic activity (blood glucose concentration after intravenous administration); assay type: in vivo, male Wister rats
Description: 40-96 mg/kg of the test compounds were administered intravenously to starved male Wister rats weighing 240-260 g each, and the blood glucose concentrations of the test animals were estimated by the glucose exidase method [L. L. Saloman et al: Anal. Chem., 31 (1959), 453], in which test the compounds were dissolved in physiological saline solution just before administration. […]

## CO[C@H]1O[C@H](CNC(=O)N(CCCl)N=O)[C@@H](O)[C@H](O)[C@H]1O [Example 6MCαG, 1-(2-chloroethyl)-3-(methyl α-D-glucopyranos-6-yl)-1-nitrosourea]
Leukemia L-1210; 2.3 mg/kg/day, i.p. D1~5
  ILS: > 207%
  Survivors (60 days): 1/6
Leukemia L-1210; 3.2 mg/kg/day, i.p. D1~5
  ILS: > 521%
  Survivors (60 days): 4/6
Leukemia L-1210; 3.2 mg/kg/day, p.o. D1~5
  ILS: 38%
Leukemia L-1210; 4.5 mg/kg/day, i.p. D1~5
  ILS: > 607%
  Survivors (60 days): 5/6
Leukemia L-1210; 6.3 mg/kg/day, i.p. D1
  ILS: > 241%
  Survivors (60 days): 3/6
Leukemia L-1210; 6.3 mg/kg/day, i.p. D1~5
  ILS: > 722%
  Survivors (60 days): 6/6
Leukemia L-1210; 6.3 mg/kg/day, p.o. D1~5
  ILS: > 397%
  Survivors (60 days): 3/6
Leukemia L-1210; 9.0 mg/kg/day, i.p. D1
  ILS: > 604%
  Survivors (60 days): 5/6
Leukemia L-1210; 9.0 mg/kg/day, i.p. D1~5
  ILS: > 700%
  Survivors (60 days): 6/6
Leukemia L-1210; 9.0 mg/kg/day, p.o. D1~5
  ILS: > 417%
  Survivors (60 days): 3/6
Leukemia L-1210; 12.5 mg/kg/day, i.p. D1
  ILS: > 619%
  Survivors (60 days): 6/6
Leukemia L-1210; 12.5 mg/kg/day, i.p. D1~5
  ILS: > 722%
  Survivors (60 days): 6/6
Leukemia L-1210; 12.5 mg/kg/day, p.o. D1~5
  ILS: > 700%
  Survivors (60 days): 6/6
Leukemia L-1210; 18.0 mg/kg/day, i.p. D1
  ILS: > 632%
  Survivors (60 days): 6/6
Leukemia L-1210; 18.0 mg/kg/day, i.p. D1~5
  ILS: > 493%
  Survivors (60 days): 4/6
Leukemia L-1210; 18.0 mg/kg/day, p.o. D1~5
  ILS: > 679%
  Survivors (60 days): 6/6
Leukemia L-1210; 25.0 mg/kg/day, i.p. D1
  ILS: > 625%
  Survivors (60 days): 6/6
Leukemia L-1210; 25.0 mg/kg/day, i.p. D1~5
  ILS: > 393%
  Survivors (60 days): 3/6
Leukemia L-1210; 25.0 mg/kg/day, p.o. D1~5
  ILS: 233%
Leukemia L-1210; 35.0 mg/kg/day, i.p. D1
  ILS: > 632%
  Survivors (60 days): 6/6
Leukemia L-1210; 35.0 mg/kg/day, i.p. D1~5
  ILS: > 157%
  Survivors (60 days): 1/6
Leukemia L-1210; 50.0 mg/kg/day, i.p. D1
  ILS: > 388%
  Survivors (60 days): 3/6
[1]
  NOAEL: 50 mg/kg
[2]
  absorption, in words: absorbed well
  excretion rate, intravenous versus oral administration, in words: almost the same excretion rates
  main route of excretion, in words: excreted mainly in the urine
[3]
  solubility: 900 mg/mL (≈ 2750 mM)
Acute toxicity (LD50); ip
  LD50 at 168 h: 42 mg/kg
Acute toxicity (LD50); iv
  LD50 at 168 h: 42 mg/kg
Acute toxicity (LD50); po
  LD50 at 168 h: 50 mg/kg
[4]
  MIC: > 200 µg/mL
[5]
  MIC: > 200 µg/mL
[6]
  MIC: > 200 µg/mL
Shigella sonnei
  MIC: > 200 µg/mL
[7]
  MIC: > 200 µg/mL
Sarcina lutea ATCC 9341
  MIC: > 200 µg/mL
[8]
  MIC: > 200 µg/mL
[9]
  MIC: > 200 µg/mL
[10]
  MIC: > 200 µg/mL
[11]; 40 mg/kg i.v., 0 hr after treatment
  Blood Glucose Concentration: 72.0 mg/dL
[11]; 40 mg/kg i.v., 2 hr after treatment
  Blood Glucose Concentration: 75.9 mg/dL
[11]; 40 mg/kg i.v., 4 hr after treatment
  Blood Glucose Concentration: 79.3 mg/dL
[11]; 40 mg/kg i.v., 7 hr after treatment
  Blood Glucose Concentration: 71.7 mg/dL
[11]; 40 mg/kg i.v., 10 hr after treatment
  Blood Glucose Concentration: 79.4 mg/dL
[11]; 40 mg/kg i.v., 24 hr after treatment
  Blood Glucose Concentration: 73.1 mg/dL
[11]; 40 mg/kg i.v., 48 hr after treatment
  Blood Glucose Concentration: 75.3 mg/dL
[11]; 60 mg/kg i.v., 0 hr after treatment
  Blood Glucose Concentration: 71.8 mg/dL
[11]; 60 mg/kg i.v., 2 hr after treatment
  Blood Glucose Concentration: 72.5 mg/dL
[11]; 60 mg/kg i.v., 4 hr after treatment
  Blood Glucose Concentration: 69.8 mg/dL
[11]; 60 mg/kg i.v., 7 hr after treatment
  Blood Glucose Concentration: 68.7 mg/dL
[11]; 60 mg/kg i.v., 10 hr after treatment
  Blood Glucose Concentration: 67.7 mg/dL
[11]; 60 mg/kg i.v., 24 hr after treatment
  Blood Glucose Concentration: 68.4 mg/dL
[11]; 60 mg/kg i.v., 48 hr after treatment
  Blood Glucose Concentration: 70.8 mg/dL
[11]; 80 mg/kg i.v., 0 hr after treatment
  Blood Glucose Concentration: 73.7 mg/dL
[11]; 80 mg/kg i.v., 2 hr after treatment
  Blood Glucose Concentration: 82.0 mg/dL
[11]; 80 mg/kg i.v., 4 hr after treatment
  Blood Glucose Concentration: 78.3 mg/dL
[11]; 80 mg/kg i.v., 7 hr after treatment
  Blood Glucose Concentration: 77.8 mg/dL
[11]; 80 mg/kg i.v., 10 hr after treatment
  Blood Glucose Concentration: 73.6 mg/dL
[11]; 80 mg/kg i.v., 24 hr after treatment
  Blood Glucose Concentration: 76.3 mg/dL
[11]; 80 mg/kg i.v., 48 hr after treatment
  Blood Glucose Concentration: 83.1 mg/dL
[11]; i.v., rats
  blood glucose concentrations versus control, in words: substantially the same blood glucose concentrations as that in the control
